Measured values from patent publication US8597904B2, “Pharmaceutical compositions for the treatment of conditions responsive to proteasome inhibition” (priority 2007, dated 2013).

Tests used:
Type in all cases: cell-based, human
[1] = system: poly (ADP-ribose) polymerase (PARP); experiment: Western blot of PARP cleavage in SK-N-SH cells
Protocol: The induction of an apoptotic response in cancer cells by the addition of syringolin A was verified by monitoring the cleavage of poly (ADP-ribose) polymerase (PARP), a common response during apoptosis. SK-N-SH cells were cultured in the presence or absence of 20 μM syringolin A for 0, 24 and 48 hours, and cell lysates were then generated as described in Example 4 and probed for the presence of PARP by Western blotting using rabbit polyclonal anti-PARP (#9542) (diluted 1:1000) and the HRP-linked anti-rabbit secondary antibody described in Example 4. The results were representative of four independent experiments. […] The treatment of cells for 48 hours further increased the levels of cleaved PARP, whereas noncleaved PARP disappeared. In a similar manner, syringolin A induced PARP cleavage in SKOV3 cells, but noncleaved PARP was still detected 48 hours after treatment (FIG. 5B).
The role of glidobactin A (GlbA) in apoptosis and its correlation with autophagy has not previously been examined. Therefore, in a series of experiments, cell lysates of SK-N-SH cells were treated with GlbA in the presence and absence of the autophagy inhibitor 3-methyladenine (3-MA) and probed for poly ADP-ribose polymerase (PARP). The cleavage of PARP produces a smaller 89 kDa fragment which is indicative of late apoptosis.

[2] = system: SK-N-SH cells; experiment: Cytox-Glo cytotoxicity assay; settings: for cytotoxicity: 0.25 μM GlbA or 25 μM SylA, 48 hours; for cytotoxicity in the presence of 3-MA: pre-treated with 3-MA
Protocol: Determination of potential cytotoxic effects by GlbA and/or […] was carried out by using the Cytox-Glo cytotoxicity assay, which measures “dead cell proteases” from cells that have lost membrane integrity. Briefly, cells were treated with a single concentration of compound for 48 hours in a final volume of 100 μl, after which 50 μl of AAF-Glo luminogenic peptide substrate (alanyl-alanyl-phenylalanyl-aminoluciferin) was added to each well and incubated for 15 min at room temperature. The luminescence was measured by a Dynex MLX luminometer to give a reading of cells with damaged membranes. Next, 50 μl of digitonin was added to each well and the samples incubated for 15 minutes at room temperature. Luminescence was measured a second time to determine total cell number. Controls included cells with vehicle only, media, and media with compound.
SK-N-SH cells were treated with 0.25 μM GlbA or 25 μM SylA and SKOV3 cells were treated with 1.0 μM GlbA or 25 μM SylA. As illustrated in FIGS. 16A and 16B, control cells (treated with DMSO and H2O representing GlbA and SylA controls, respectively) were viable and no cytotoxicity was detected.
To determine if autophagy plays a role in GlbA/SylA-induced cell death, levels of cytotoxicity in cells pre-treated with 3-methyladenine (3-MA), an established autophagy inhibitor, were measured using the assay described in Example 12.

[3] = system: p53; experiment: Western blot of total p53 protein levels in SK-N-SH cells
Protocol: Because p53 is a key regulator and mediator of apoptosis, the total protein levels of p53 in the p53-wild type cell line SK-N-SH were measured after treatment of cells with syringolin A. As a control, the p53-deficient cell line SKOV3 was tested in parallel. Cells at a concentration of 1.0×10^5 cells per ml were first seeded in six-well plates containing 2 ml of culture medium per well. […] Cells were incubated for 0, 24, and 48 hours, harvested, and lysed in radioimmuno-precipitation assay (RIPA) buffer (20 mM Tris-HCl, pH 7.5, 0.1% sodium lauryl sulphate, 0.5% sodium deoxycholate, 135 mM NaCl, 1% Triton X-100, 10% glycerol, 2 mM EDTA), supplemented with a protease inhibitor cocktail (Roche Molecular Biochemicals, Indianapolis, Ind.) and phosphatase inhibitors sodium fluoride (NaF; 20 mM) and sodium vanadate (Na3VO4; 0.27 mM). The total protein concentration was determined using the protein assay dye reagent from Bio-Rad Laboratories (Hercules, Calif.) and bovine serum albumin (BSA) as a standard. Cell lysates in Laemmli sample buffer (Bio-Rad Laboratories, Hercules, Calif.) containing 5% (v/v) β-mercaptoethanol were boiled for 5 minutes, and equal amounts of total protein were analyzed by 10% sodium dodecyl sulphate-polyacrylamide gel electrophoresis (SDS-PAGE) and Western blotting using PVDF membranes. p53 was detected in Western blotting with mouse monoclonal anti-p53 (sc-126) (diluted 1:250) from Santa Cruz Biotechnology (Santa Cruz, Calif.). Actin was also detected as a loading control using mouse monoclonal anti-β-actin (A5316) (diluted 1:1000) from Sigma Chemical Co. (St. Louis, Mo.). Alternatively, lysates were blotted with rabbit monoclonal anti-caspase-3 (#9665) (diluted 1:1000) or rabbit polyclonal anti-Akt (#9272) (diluted 1:1000), both from Cell Signalling Technology, Inc. (Beverly, Mass.) to test for levels of procaspase-3 and Akt/PKB. Secondary anti-mouse (diluted 1:5000) and anti-rabbit (diluted 1:5000) antibodies coupled to horseradish peroxidase (HRP) were from Amersham Biosciences (Piscataway, N.J.). Proteins were detected using the ECL Plus reagents (Amersham Biosciences, Piscataway, N.J.) and Kodak BioMax XAR film (Fisher Scientific, Pittsburgh, Pa.). The results are representative of three (p53, procaspase-3) or four (Akt/PKB) independent experiments.
As inhibition of the proteasome is expected to result in increased levels of ubiquitinated proteins (Meng, et al. 1999. Proc. Natl. Acad. Sci. U.S.A. 96:10403-10408, which is incorporated herein by reference in its entirety), the effect of syringolin A on total ubiquitinated protein accumulation was analyzed by immunoblot analysis. To do so, SK-N-SH cells were seeded in 6-well cell culture plates at a concentration of 3.8×10^5 cells per ml (1.98 ml per well). […]

Compound | PARP cleavage ([1]; Example 15, single agent) | GlbA-induced PARP cleavage in presence of 3-MA ([1]; GlbA with 3-MA) | cytotoxicity [2] | cytotoxicity in the presence of 3-MA [2] | total protein levels of p53 ([3]; GlbA treatment) | GlbA-induced p53 levels in presence of 3-MA ([3]; GlbA with 3-MA) | PARP cleavage ([1]; 20 μM, 24 and 48 hours) | p53 levels ([3]; 20 μM, 24 hours after treatment) | protein levels of tumor suppressor protein p53 ([3]; 25 μM, time-course up to 24 hours)
CCCCCCC/C=C/C=C/C(=O)N[C@H](C(=O)N[C@H]1C[C@@H](O)CCNC(=O)/C=C/[C@H](C)NC1=O)[C@@H](C)O [glidobactin A] | PARP cleavage was observed | slightly reduced this effect | about 40% | significantly reduced | strong accumulation of p53 | partially reduced | – | – | –
CC(C)[C@H](NC(=O)N[C@H](C(=O)N[C@H]1/C=C/CCNC(=O)/C=C/[C@H](C(C)C)NC1=O)C(C)C)C(=O)O [syringolin A] | – | – | ~30% | significantly reduced | – | – | induces apoptosis-associated PARP cleavage | rapidly increased | time-dependent increase
